In ChEMBL document CHEMBL4814025, “Exploring naltrexamine derivatives featuring azaindole moiety via nitrogen-walk approach to investigate their in vitro pharmacological profiles at the mu opioid receptor” (Bioorg Med Chem Lett, 2021) one finds Emax, Ki and EC50 data, which are given here for 13 compounds.

Assay [1] deals with Mu-type opioid receptor (Mus musculus) (UniProt P42866). Briefly: Partial agonist activity at mouse mu opioid receptor expressed in CHO cell membranes assessed as stimulation of [35S]GTPgammaS binding incubated for 1.5 hrs by scintillation counting method relative to DAMGO. Type of assay: functional. The conditions noted are these: Membrane. Background: GTPγS resists hydrolysis and so accumulates on activated G proteins.
Sequence of Mu-type opioid receptor (Mus musculus) (P42866 whole entry): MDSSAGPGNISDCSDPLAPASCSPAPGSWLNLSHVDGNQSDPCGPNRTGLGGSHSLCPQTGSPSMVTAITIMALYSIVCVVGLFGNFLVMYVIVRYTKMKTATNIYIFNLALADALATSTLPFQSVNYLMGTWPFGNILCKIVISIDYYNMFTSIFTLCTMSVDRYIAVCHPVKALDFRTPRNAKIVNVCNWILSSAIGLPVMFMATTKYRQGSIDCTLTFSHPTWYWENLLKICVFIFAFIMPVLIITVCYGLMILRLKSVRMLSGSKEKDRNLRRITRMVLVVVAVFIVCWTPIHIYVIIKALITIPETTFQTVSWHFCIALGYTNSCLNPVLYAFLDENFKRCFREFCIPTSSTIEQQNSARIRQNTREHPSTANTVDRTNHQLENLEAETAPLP

Assay [2] has as its target Mu-type opioid receptor (Homo sapiens) (UniProt P35372). Briefly: Partial agonist activity at mu opioid receptor (unknown origin) expressed in CHO cell membranes incubated for 1 hr by [35S]GTPgammaS binding assay relative to DAMGO. Type of assay: functional. Particulars: Membrane.
The target in assay [3] is T1, Mu-type opioid receptor (Mus musculus, UniProt P42866). Nature of the assay: Displacement of [3H]-NLX from mouse mu opioid receptor expressed in CHO cell membranes measured after 1.5 hrs by competitive radioligand binding assay. Also noted: species or system Membrane. In general terms: Displacement assays read how much labelled ligand stays bound in the presence of the test substance.
T1 sequence (P42866 whole entry): as above

Assay [4] addresses T1, Mu-type opioid receptor. Briefly: Partial agonist activity at mouse mu opioid receptor expressed in CHO cell membranes incubated for 1.5 hrs by [35S]GTPgammaS binding based scintillation counting method. Type of assay: functional, Membrane.

What is called Emax is the size of the effect at its maximum, as opposed to the concentration needed. In general, Ki refers to the dissociation constant of the complex between target and ligand, obtained from inhibition or displacement. Low readings indicate a stronger hold on the target, high ones a looser hold on the target. What is called EC50 is the concentration giving half of the maximal effect. Low readings indicate an effect from little substance, high ones a need for much substance.

Sequence of Mu-type opioid receptor (Homo sapiens) (P35372 whole entry): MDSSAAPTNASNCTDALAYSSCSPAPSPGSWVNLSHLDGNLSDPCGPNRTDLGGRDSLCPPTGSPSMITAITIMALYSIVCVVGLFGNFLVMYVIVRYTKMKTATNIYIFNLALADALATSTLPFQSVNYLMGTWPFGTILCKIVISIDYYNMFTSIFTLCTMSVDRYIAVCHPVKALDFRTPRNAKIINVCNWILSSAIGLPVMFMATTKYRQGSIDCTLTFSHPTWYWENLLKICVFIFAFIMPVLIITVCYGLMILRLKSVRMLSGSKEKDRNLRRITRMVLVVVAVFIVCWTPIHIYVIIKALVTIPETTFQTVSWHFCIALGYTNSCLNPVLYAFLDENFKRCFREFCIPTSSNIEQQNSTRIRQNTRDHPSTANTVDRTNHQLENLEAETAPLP

With `O=C(N[C@H]1C=C[C@@]2(O)[C@H]3Cc4ccc(O)c5c4[C@@]2(CCN3CC2CC2)[C@H]1O5)c1cccc2cc[nH]c12`, the Emax in assay [1] was 19.1%.

`O=C(N[C@@H]1C=C[C@@]2(O)[C@H]3Cc4ccc(O)c5c4[C@@]2(CCN3CC2CC2)[C@H]1O5)c1n[nH]c2ccccc12`: the maximum response (Emax) in assay [2] came out at 39.6%. For `O=C(N[C@H]1C=C[C@@]2(O)[C@H]3Cc4ccc(O)c5c4[C@@]2(CCN3CC2CC2)[C@H]1O5)c1c[nH]c2ccccc12`, on Mu-type opioid receptor [3], the Ki was found to be 290 pM. This compound registered a half-maximal effective concentration (EC50) on Mu-type opioid receptor [4] of 1000 pM. The Emax in assay [1] was found to be 33.3%. In the case of `O=C(N[C@H]1C=C[C@@]2(O)[C@H]3Cc4ccc(O)c5c4[C@@]2(CCN3CC2CC2)[C@H]1O5)c1c[nH]c2cnccc12`, the Emax in assay [2] is 21.1%.

In assay [2], `O=C(N[C@H]1C=C[C@@]2(O)[C@H]3Cc4ccc(O)c5c4[C@@]2(CCN3CC2CC2)[C@H]1O5)c1n[nH]c2ccccc12` registered a maximal response (Emax) of 12.3%. `O=C(N[C@@H]1C=C[C@@]2(O)[C@H]3Cc4ccc(O)c5c4[C@@]2(CCN3CC2CC2)[C@H]1O5)c1c[nH]c2ccccc12` had a Ki at Mu-type opioid receptor [3] of 190 pM. At Mu-type opioid receptor [4], the half-maximal effective concentration (EC50) is 220 pM. Further, in assay [1] (filed as partial agonist), the maximal effect (Emax) was determined as 79.5%. In assay [2], `O=C(N[C@H]1C=C[C@@]2(O)[C@H]3Cc4ccc(O)c5c4[C@@]2(CCN3CC2CC2)[C@H]1O5)c1c[nH]c2cccnc12` yielded a maximal response (Emax) of 18%. Take `O=C(N[C@@H]1C=C[C@@]2(O)[C@H]3Cc4ccc(O)c5c4[C@@]2(CCN3CC2CC2)[C@H]1O5)c1c[nH]c2ncccc12`: the Emax in assay [2] (filed as partial agonist) came out at 40.7%. `O=C(N[C@H]1C=C[C@@]2(O)[C@H]3Cc4ccc(O)c5c4[C@@]2(CCN3CC2CC2)[C@H]1O5)c1c[nH]c2ncccc12` registered an Emax in assay [2] of 22.1%. Same read-out and setting: the value for `O=C(N[C@H]1C=C[C@@]2(O)[C@H]3Cc4ccc(O)c5c4[C@@]2(CCN3CC2CC2)[C@H]1O5)c1c[nH]c2ccncc12` was 21.7%; that for `O=C(N[C@@H]1C=C[C@@]2(O)[C@H]3Cc4ccc(O)c5c4[C@@]2(CCN3CC2CC2)[C@H]1O5)c1c[nH]c2cnccc12` was 26.2%; that for `O=C(N[C@@H]1C=C[C@@]2(O)[C@H]3Cc4ccc(O)c5c4[C@@]2(CCN3CC2CC2)[C@H]1O5)c1c[nH]c2cccnc12` was 22.4%. The same measure, in the same setting: the value for `O=C(N[C@@H]1C=C[C@@]2(O)[C@H]3Cc4ccc(O)c5c4[C@@]2(CCN3CC2CC2)[C@H]1O5)c1c[nH]c2ccncc12` was 14.9%.
